Legend:
Assay type in all cases: in vivo, Sprague-Dawley rats
[1] = system: plasma TNF-a; experiment: LPS-induced inflammation in rats: plasma TNF-a; details: oral gavage 25 or 50 microgram daily over 7 days, LPS 0.5 mg/kg IP on Day 7, sacrifice four hours later, compared to LPS treated animals
Method: (§1) Male Sprague-Dawley rats (175 g) are kept on a 12-h light:dark cycle with food (Harlan-Teklad Rodent Chow, Madison, Wis.) and water provided freely. Animals are administered daily doses of vitamin K2 (MK-7) or saline (control) via oral gavage over 7 days. Stock solutions of vitamin K2 are prepared containing 3.5 g/L HCO-60 and 1 g/L of […] in buffer A (0.15 M NaCl, 0.05 M Tris-HCl, pH 7.5). The K2 is dissolved by sonication during five pulses of 5 set with an amplitude of 6 pm. Solutions thus obtained are clear, homogeneous, and stable. Shortly before vitamin K administration the stock solutions are diluted five times with buffer A, leading to a final HCO-60 concentration of 0.7 g/L. Further dilutions (as required) are made with 0.7 g/L HCO-60 in buffer A. Each dilution step is followed by sonication as described above. In all cases vitamin K2 is administered to the rats in 0.5 mL samples, with either 25 or 50 microgram oral doses.
On the final day (Day 7), rodents are administered vitamin K2 and 2 hours later were given an IP dose of LPS (Escherichia coli serotype O111:B4, L2630, Sigma) intraperitoneally (0.5 mg/kg of body weight). Four hours later animals are sacrificed.

[2] = system: IKKα/β (Ser176/180); experiment: LPS-treated rats: gastrocnemius muscle immunoblot, phosphorylated IKKα/β; details: oral 25 or 50 microgram daily over 7 days, LPS IP, compared to LPS treatment
Method: (§2) Male Sprague-Dawley rats (175 g) are kept on a 12-h light:dark cycle with food (Harlan-Teklad Rodent Chow, Madison, Wis.) and water provided freely. Animals are administered daily doses of vitamin K2 (MK-7) or saline (control) via oral gavage over 7 days. Stock solutions of vitamin K2 are prepared containing 3.5 g/L HCO-60 and 1 g/L of […] in buffer A (0.15 M NaCl, 0.05 M Tris-HCl, pH 7.5). The K2 is dissolved by sonication during five pulses of 5 set with an amplitude of 6 pm. Solutions thus obtained are clear, homogeneous, and stable. […]
(§3) Analysis of mTOR Signaling to eIFs—Gastrocnemius muscles are weighed and homogenized in 7 volumes of buffer containing 20 mM HEPES (pH 7.4), 100 mM potassium chloride, 0.2 mM EDTA, 2 mM EGTA, 50 mM sodium fluoride, 50 mM glycerophosphate, 0.1 mM phenylmethylsulfonyl fluoride, 1 mM benzamidine, 1 mM dithiothreitol (DTT), and 0.5 mM sodium vanadate. […] Samples are analyzed for the phosphorylation status of 4E-BP1 (Thr37) and ribosomal protein S6 (Ser 235/236), the anti-phosphospecific antibodies were obtained from Cell Signaling Technology, Beverly, Mass. Additionally, samples are analyzed for phosphorylated IKKα/β (Ser176/180; Cell Signaling Technology) and phosphorylated p65 (Ser536; Cell Signaling Technology).

[3] = system: NFκB p65 (Ser536); experiment: LPS-treated rats: gastrocnemius muscle immunoblot, phosphorylated p65; details: oral 25 or 50 microgram daily over 7 days, LPS IP, compared to LPS treatment
Method: as §2, §3

[4] = system: 4E-BP1 (Thr37); experiment: LPS-treated rats: mTOR signaling to eIFs, 4E-BP1 phosphorylation in gastrocnemius muscle; details: oral 25 or 50 microgram daily over 7 days, LPS IP, compared to LPS treatment
Method: as §2, §3

[5] = system: ribosomal protein S6 (Ser 235/236); experiment: LPS-treated rats: mTOR signaling to eIFs, ribosomal protein S6 phosphorylation in gastrocnemius muscle; details: oral 25 or 50 microgram daily over 7 days, LPS IP, compared to LPS treatment
Method: as §2, §3

[6] = system: mixed muscle protein synthesis; experiment: LPS-treated rats: fractional rate of mixed muscle protein synthesis (Ks), radioactive phenylalanine incorporation; details: oral 25 or 50 microgram daily over 7 days, LPS IP, conditions of inflammatory sepsis, compared to LPS treatment
Method: as §1, with “doses. […]” for “doses.”
Measurement of Protein Synthesis—The fractional rate of synthesis (Ks) is estimated from the rate of incorporation of radioactive phenylalanine into total mixed muscle protein using the specific radioactivity of serum phenylalanine as representative of the precursor pool. […]

SMILES: CC(C)=CCC/C(C)=C/CC/C(C)=C/CC/C(C)=C/CC/C(C)=C/CC/C(C)=C/CC/C(C)=C/CC1=C(C)C(=O)c2ccccc2C1=O [K2, vitamin K2 (MK-7)]
- rise of plasma TNF-a [1]: significant decrease in the rise
- phosphorylation for IKKα/β [2]: significant blunting of the drop in phosphorylation
- NFκB p65 induction [3]: significant blunting
- 4E-BP1(Thr-37) phosphorylation [4]: abrogates the decrease
- ribosomal protein S6 phosphorylation [5]: abrogates the decrease
- fractional rate of mixed muscle protein synthesis [6]: greater preservation
